# Where a SMILES comes first, the peptide text is derived from it. Where no end group is shown, it is not given here. [ ]: non-standard residue; d: D form. 4Pal = N[C@@H](Cc1ccncc1)C(=O)O; Dab = NCC[C@H](N)C(=O)O; Aib = CC(C)(N)C(=O)O
# T1: human GIP receptor (hGIP-R) (Homo sapiens, UniProt P48546)
# T1 construct: expressed in transfected cells; host or cells: HEK-293 clonal cell line
# T1 sequence (P48546 22-466): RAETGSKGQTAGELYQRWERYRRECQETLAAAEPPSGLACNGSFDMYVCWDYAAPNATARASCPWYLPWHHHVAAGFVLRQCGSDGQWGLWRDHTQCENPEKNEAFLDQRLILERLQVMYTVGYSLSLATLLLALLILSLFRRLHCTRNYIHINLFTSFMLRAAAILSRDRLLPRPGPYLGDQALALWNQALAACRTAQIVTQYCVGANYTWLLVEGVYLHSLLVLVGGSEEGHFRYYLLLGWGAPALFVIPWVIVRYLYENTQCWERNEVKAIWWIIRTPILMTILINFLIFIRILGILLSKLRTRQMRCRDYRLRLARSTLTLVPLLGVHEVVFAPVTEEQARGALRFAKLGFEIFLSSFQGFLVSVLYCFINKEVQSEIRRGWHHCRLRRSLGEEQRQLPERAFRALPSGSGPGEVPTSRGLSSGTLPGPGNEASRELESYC
# T2: human GLP-2 receptor (human, UniProt O95838 1-553)
# T2 sequence (looked up): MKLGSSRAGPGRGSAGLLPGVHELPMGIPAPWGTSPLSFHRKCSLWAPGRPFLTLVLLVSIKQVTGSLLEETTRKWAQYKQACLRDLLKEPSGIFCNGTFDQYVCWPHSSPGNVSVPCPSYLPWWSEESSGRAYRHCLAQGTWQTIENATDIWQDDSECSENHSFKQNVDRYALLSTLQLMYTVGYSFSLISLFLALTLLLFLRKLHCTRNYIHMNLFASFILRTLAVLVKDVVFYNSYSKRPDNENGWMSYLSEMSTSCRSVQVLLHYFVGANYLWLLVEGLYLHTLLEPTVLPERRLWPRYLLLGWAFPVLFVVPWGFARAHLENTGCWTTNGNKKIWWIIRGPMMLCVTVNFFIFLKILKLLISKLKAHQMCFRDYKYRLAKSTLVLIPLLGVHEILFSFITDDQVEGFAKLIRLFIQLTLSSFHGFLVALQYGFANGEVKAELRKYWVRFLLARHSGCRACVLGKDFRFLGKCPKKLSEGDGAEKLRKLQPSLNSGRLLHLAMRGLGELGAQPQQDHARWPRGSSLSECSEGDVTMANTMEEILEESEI
# Legend:
# [1] = target: T3, human GLP-1 receptor (hGLP-1R) (Homo sapiens, UniProt P43220); assay: cAMP functional activity assay, hGLP-1R HEK-293 cells; type: cell-based; conditions: HEK293; percent of response to 10 nM GLP-1(7-36)NH2; mean ± SEM
# T3 construct: expressed in transfected cells; host or cells: HEK-293 clonal cell line
# in vivo = conditions: male, Yucatan miniature swine, pig, sc, 10 ug/kg
# Procedure: 1. […] The compounds and an analog as an internal standard are extracted from […] by antibody or protein precipitations. The intact mass of the compounds are detected by a Q Exactive® Orbitrap® Mass Spectrometer (Thermo Fisher Scientific; Waltham, Mass.). 2. […] Blood is collected at pre-dose, 2, 5, 10, 15, 20, 25, 30, 45, 60, 75, 90, 120 and 150 minutes post-dose, and plasma is obtained for pharmacokinetic characterization. […] Blood is collected at pre-dose, 2, 5, 10, 15, 20, 25, 30, 45, 60, 75, 90, 120 and 150 minutes postdose, and plasma is obtained for pharmacokinetic characterization.
# [2] = tested on: CD8+ T cell-depleted peripheral blood mononuclear cells (CD4+ T cells); assay: CD4+ T cell assay (immunogenicity); type: cell-based, human; conditions: Cell Division Index; positive donors only
# Procedure: 1. CD4+ T Cell Assay: to assess the propensity for a clinical immunogenic response to the G compounds of Examples 1-4, CD8+ T cell-depleted peripheral blood mononuclear cells (PBMC's) are prepared and labeled with carboxyfluorescein diacetate succinimidyl ester (CFSE; Invitrogen) from a cohort of 10 healthy donors with diverse human leukocyte antigen (HLA) class II haplotypes. Each donor is tested in triplicate with 2.0 mL media control, keyhole limpet haemocyanin (KLH; 0.33 μM), and the compounds of Examples 1-4 (10 μM). Cultures are incubated for 7 days at 37° C. with 5% CO2. On day 7, samples are analyzed by flow cytometry using a BD LSR II Fortessa (Becton Dickinson; Franklin Lakes, N.J.), equipped with a high throughput sampler (HTS). Data is analyzed using FlowJo® Software (FlowJo, LLC/TreeStar; Ashland, Oreg.).
# Protein therapeutics that induce less than 30% positive response in the CD4+ T cell proliferation assay are associated with a low risk of immunogenicity.
# [3] = target: T1, human GIP receptor (hGIP-R); assay: cAMP functional activity assay, hGIP-R HEK-293 cells; type: cell-based; conditions: for Emax at 9.95 µM: HEK293, percent of response to 10 nM GIP(1-42)NH2, Examples at 9.95 μM, read-out: Emax hGIPR; for EC50: in the presence of FBS and BSA, read-out: cAMP EC50 hGIPR
# Procedure: (§1) After a sixty-minute incubation at room temperature, the resulting increase in intracellular cAMP is quantitatively determined using a cAMP Dynamic 2 HTRF Assay Kit (62AM4PEJ; CisBio; Codolet, FR). Briefly, cAMP levels within the cell are detected by adding a cAMP-d2 conjugate in cell lysis buffer (10 μl) followed by an anti-cAMP-Eu3+-Cryptate antibody, also in cell lysis buffer (10 μl). […] A relative EC50 value and percent top (Emax) are derived by non-linear regression analysis using the percent maximal response vs. the concentration of peptide added, fitted to a four-parameter logistic equation.
# hGCGR = target: T4, hGCGR (Homo sapiens, UniProt P47871); assay: cAMP functional activity assay, hGCGR HEK-293 cells; type: cell-based; conditions: HEK293; percent of response to 1 nM Glucagon; mean ± SEM
# T4 construct: expressed in transfected cells; host or cells: HEK-293 clonal cell line
# Procedure: as §1
# human GLP-2 receptor = target: T2, human GLP-2 receptor; assay: cell-based or functional assay
# T3 sequence (P43220 24-463): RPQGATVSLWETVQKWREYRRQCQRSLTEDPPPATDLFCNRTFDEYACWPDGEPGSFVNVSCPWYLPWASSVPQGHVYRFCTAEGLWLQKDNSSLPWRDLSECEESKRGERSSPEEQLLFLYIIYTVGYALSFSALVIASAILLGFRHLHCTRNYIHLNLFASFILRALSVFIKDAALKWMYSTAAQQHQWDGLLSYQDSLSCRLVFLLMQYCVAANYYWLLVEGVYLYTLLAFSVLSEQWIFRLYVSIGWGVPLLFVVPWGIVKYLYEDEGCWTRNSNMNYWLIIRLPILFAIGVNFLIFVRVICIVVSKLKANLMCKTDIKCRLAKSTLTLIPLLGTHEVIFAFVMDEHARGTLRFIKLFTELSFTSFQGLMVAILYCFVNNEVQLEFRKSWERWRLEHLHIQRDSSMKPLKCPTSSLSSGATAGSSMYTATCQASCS
# T4 sequence (P47871 26-477): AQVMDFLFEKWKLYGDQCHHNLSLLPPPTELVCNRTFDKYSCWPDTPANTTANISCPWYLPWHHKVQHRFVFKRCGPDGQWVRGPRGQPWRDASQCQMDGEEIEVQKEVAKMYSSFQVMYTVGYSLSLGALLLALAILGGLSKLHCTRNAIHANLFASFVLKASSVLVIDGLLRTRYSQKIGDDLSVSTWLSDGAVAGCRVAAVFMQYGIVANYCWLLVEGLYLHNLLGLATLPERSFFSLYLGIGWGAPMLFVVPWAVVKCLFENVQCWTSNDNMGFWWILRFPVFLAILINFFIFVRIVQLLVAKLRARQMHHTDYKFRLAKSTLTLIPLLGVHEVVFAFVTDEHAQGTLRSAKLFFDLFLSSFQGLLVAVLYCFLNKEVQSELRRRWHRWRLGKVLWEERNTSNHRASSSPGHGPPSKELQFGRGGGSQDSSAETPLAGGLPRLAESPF
Emax [1],Cmax (in vivo; Cmax),half-life (in vivo; T1/2),Median Response Strength in positive donors (CDI) [2],Emax at 9.95 µM [3],EC50 [3],Emax (hGCGR),Tmax (in vivo),cAMP EC50 (human GLP-2 receptor),Molecule
109 ± 5%,1.8 ng/mL,26.8 min,6.5,< 5%,> 9.95 µM,,,,CC(=O)NCC[C@H](NC(=O)[C@H](CO)NC(=O)[C@@H](N)Cc1c[nH]cn1)C(=O)NCC(=O)N[C@H](C(=O)N[C@@H](Cc1ccccc1)C(=O)N[C@H](C(=O)N[C@@H](CO)C(=O)N[C@@H](CC(=O)O)C(=O)N[C@@H](Cc1ccc(O)cc1)C(=O)N[C@@H](CO)C(=O)N[C@@H](CCCCN)C(=O)N[C@@H](Cc1ccc(O)cc1)C(=O)N[C@@H](CC(C)C)C(=O)N[C@@H](CC(=O)O)C(=O)NC(C)(C)C(=O)N[C@@H](CCCNC(=N)N)C(=O)N[C@@H](CCCNC(=N)N)C(=O)N[C@@H](C)C(=O)N[C@@H](CCC(N)=O)C(=O)N[C@@H](C)C(=O)N[C@@H](Cc1ccccc1)C(=O)N[C@H](C(=O)N[C@@H](CCCCN)C(=O)N[C@@H](Cc1ccncc1)C(=O)N[C@@H](CC(C)C)C(=O)N[C@@H](CC(C)C)C(=O)N[C@@H](CO)C(=O)N[C@H](C(=O)O)[C@@H](C)O)C(C)C)[C@@H](C)O)[C@@H](C)O [Example 3]
105 ± 2%,,,,< 5%,> 9.95 µM,103 ± 2%,20 min,,CC(C)C[C@H](NC(=O)[C@H](Cc1ccncc1)NC(=O)[C@H](CCCCN)NC(=O)[C@@H](NC(=O)[C@H](Cc1ccccc1)NC(=O)[C@H](CCC(N)=O)NC(=O)[C@H](CCC(N)=O)NC(=O)[C@H](C)NC(=O)[C@H](CCCNC(=N)N)NC(=O)[C@H](CCCNC(=N)N)NC(=O)C(C)(C)NC(=O)[C@H](CC(=O)O)NC(=O)[C@H](CC(C)C)NC(=O)[C@H](Cc1ccc(O)cc1)NC(=O)[C@H](CCCCN)NC(=O)[C@H](CO)NC(=O)[C@H](Cc1ccc(O)cc1)NC(=O)[C@H](CC(=O)O)NC(=O)[C@H](CO)NC(=O)[C@@H](NC(=O)[C@H](Cc1ccccc1)NC(=O)[C@@H](NC(=O)CNC(=O)[C@H](CCC(N)=O)NC(=O)[C@H](CO)NC(=O)[C@@H](N)Cc1c[nH]cn1)[C@@H](C)O)[C@@H](C)O)C(C)C)C(=O)N[C@@H](CC(C)C)C(=O)N[C@@H](CO)C(=O)N[C@H](C(=O)O)[C@@H](C)O [Example 1] (H-HSQGTFTSDYSKYLD[Aib]RRAQQFVK[4Pal]LLST-OH; N-terminus assumed)
100 ± 5%,,,6.42,< 5%,> 9.95 µM,98 ± 2%,25 min,,CC(=O)NCC[C@H](NC(=O)[C@H](CO)NC(=O)[C@@H](N)Cc1c[nH]cn1)C(=O)NCC(=O)N[C@H](C(=O)N[C@@H](Cc1ccccc1)C(=O)N[C@H](C(=O)N[C@@H](CO)C(=O)N[C@@H](CC(=O)O)C(=O)N[C@@H](Cc1ccc(O)cc1)C(=O)N[C@@H](CO)C(=O)N[C@@H](CCCCN)C(=O)N[C@@H](Cc1ccc(O)cc1)C(=O)N[C@@H](CC(C)C)C(=O)N[C@@H](CC(=O)O)C(=O)NC(C)(C)C(=O)N[C@@H](CCCNC(=N)N)C(=O)N[C@@H](CCCNC(=N)N)C(=O)N[C@@H](C)C(=O)N[C@@H](CCC(N)=O)C(=O)N[C@@H](CCC(N)=O)C(=O)N[C@@H](Cc1ccccc1)C(=O)N[C@H](C(=O)N[C@@H](CCCCN)C(=O)N[C@@H](Cc1ccncc1)C(=O)N[C@@H](CC(C)C)C(=O)N[C@@H](CC(C)C)C(=O)N[C@@H](CO)C(=O)N[C@H](C(=O)O)[C@@H](C)O)C(C)C)[C@@H](C)O)[C@@H](C)O [Example 4] (H-HS[Dab](Ac)GTFTSDYSKYLD[Aib]RRAQQFVK[4Pal]LLST-OH; N-terminus assumed)
,,,,,,,,0.016 nM,HADGSFSDEMNTILDNLAARDFINWLIQTKITDR-OH [GLP-2 (1-34) acid]

# From US20220125885A1, “GLUCAGON ANALOG AGONISTS AND METHODS OF USING THE SAME” (Eli Lilly and Company, priority 2019, published 2022)
